Laboratory results as given in ChEMBL document CHEMBL1154064, “Synthesis and DNA cleavage activity of 2-hydrazinyl-1,4,5,6-tetrahydropyrimidine containing hydroxy group” (2009).
Activity calls are given as the source filed them. The rule behind the calls is not given here.

How the values were obtained:
Nucleic Acid [1] = test: Binding affinity to Escherichia coli pUC19 DNA assessed as form 2 DNA level at 0.175 mM after 13.07 hrs by agarose gel electrophoresis; assay type: nucleic-acid assay
Nucleic Acid [2] = test: Binding affinity to Escherichia coli pUC19 DNA assessed as form 1 DNA level at 0.463 mM after 25.35 hrs by agarose gel electrophoresis; assay type: nucleic-acid assay
Nucleic Acid [3] = test: Binding affinity to Escherichia coli pUC19 DNA assessed as form 2 DNA level at 0.349 mM after 28.18 hrs by agarose gel electrophoresis; assay type: nucleic-acid assay
Nucleic Acid [4] = test: Binding affinity to Escherichia coli pUC19 DNA assessed as form 2 DNA level at 0.175 mM after 31.48 hrs by agarose gel electrophoresis; assay type: nucleic-acid assay
Nucleic Acid [5] = test: Binding affinity to Escherichia coli pUC19 DNA assessed as form 2 DNA level at 0.130 mM after 8.08 hrs by agarose gel electrophoresis; assay type: nucleic-acid assay
Nucleic Acid [6] = test: Binding affinity to supercoiled Escherichia coli pUC19 DNA assessed as formation of nicked circular DNA at 1.10 mM at pH 6.0 for 24 hrs in presence of potassium iodide by agarose gel electrophoresis; assay type: nucleic-acid assay
Nucleic Acid [7] = test: Binding affinity to Escherichia coli pUC19 DNA assessed as form 2 DNA level at 0.698 mM after 14.22 hrs by agarose gel electrophoresis; assay type: nucleic-acid assay
Nucleic Acid [8] = test: Binding affinity to Escherichia coli pUC19 DNA assessed as form 2 DNA level at 0.320 mM after 25.35 hrs by agarose gel electrophoresis; assay type: nucleic-acid assay
Nucleic Acid [9] = test: Binding affinity to Escherichia coli pUC19 DNA assessed as form 2 DNA level at 0.262 mM after 24.08 hrs by agarose gel electrophoresis; assay type: nucleic-acid assay
Nucleic Acid [10] = test: Binding affinity to Escherichia coli pUC19 DNA assessed as form 1 DNA level at 0.463 mM after 13.07 hrs by agarose gel electrophoresis; assay type: nucleic-acid assay
Nucleic Acid [11] = test: Binding affinity to Escherichia coli pUC19 DNA assessed as form 2 DNA level at 0.262 mM after 28.18 hrs by agarose gel electrophoresis; assay type: nucleic-acid assay
Nucleic Acid [12] = test: Binding affinity to Escherichia coli pUC19 DNA assessed as form 1 DNA level at 0.175 mM after 31.48 hrs by agarose gel electrophoresis; assay type: nucleic-acid assay
Nucleic Acid [13] = test: Binding affinity to Escherichia coli pUC19 DNA assessed as form 2 DNA level at 0.175 mM by agarose gel electrophoresis; assay type: nucleic-acid assay
HeLa = test: Growth inhibition of human HeLa cells at 1000 uM after 72 hrs by MTT assay; assay type: functional; parameters: scale not given: the % may be the effect or the level left
Nucleic Acid [14] = test: Binding affinity to Escherichia coli pUC19 DNA assessed as form 1 DNA level at 0.349 mM by agarose gel electrophoresis; assay type: nucleic-acid assay
Nucleic Acid [15] = test: Binding affinity to Escherichia coli pUC19 DNA assessed as form 2 DNA level at 0.130 mM after 5.42 hrs by agarose gel electrophoresis; assay type: nucleic-acid assay
Nucleic Acid [16] = test: Binding affinity to Escherichia coli pUC19 DNA assessed as form 1 DNA level at 0.320 mM after 4.95 hrs by agarose gel electrophoresis; assay type: nucleic-acid assay
Nucleic Acid [17] = test: Binding affinity to Escherichia coli pUC19 DNA assessed as form 2 DNA level at 0.349 mM after 5.40 hrs by agarose gel electrophoresis; assay type: nucleic-acid assay
Nucleic Acid [18] = test: Binding affinity to Escherichia coli pUC19 DNA assessed as form 2 DNA level at 0.698 mM after 12.13 hrs by agarose gel electrophoresis; assay type: nucleic-acid assay
Nucleic Acid [19] = test: Binding affinity to Escherichia coli pUC19 DNA assessed as form 2 DNA level at 0.349 mM after 24.08 hrs by agarose gel electrophoresis; assay type: nucleic-acid assay
Nucleic Acid [20] = test: Binding affinity to Escherichia coli pUC19 DNA assessed as form 2 DNA level at 0.463 mM after 27.33 hrs by agarose gel electrophoresis; assay type: nucleic-acid assay
Nucleic Acid [21] = test: Binding affinity to Escherichia coli pUC19 DNA assessed as form 1 DNA level at 0.698 mM after 23.80 hrs by agarose gel electrophoresis; assay type: nucleic-acid assay
Nucleic Acid [22] = test: Binding affinity to Escherichia coli pUC19 DNA assessed as form 2 DNA level at 0.463 mM after 9.07 hrs by agarose gel electrophoresis; assay type: nucleic-acid assay
Nucleic Acid [23] = test: Binding affinity to Escherichia coli pUC19 DNA assessed as form 2 DNA level at 0.349 mM after 23.02 hrs by agarose gel electrophoresis; assay type: nucleic-acid assay
Nucleic Acid [24] = test: Binding affinity to Escherichia coli pUC19 DNA assessed as form 2 DNA level at 0.698 mM after 10.70 hrs by agarose gel electrophoresis; assay type: nucleic-acid assay
Nucleic Acid [25] = test: Binding affinity to Escherichia coli pUC19 DNA assessed as form 1 DNA level at 0.130 mM by agarose gel electrophoresis; assay type: nucleic-acid assay
Nucleic Acid [26] = test: Binding affinity to Escherichia coli pUC19 DNA assessed as form 1 DNA level at 0.130 mM after 23.52 hrs by agarose gel electrophoresis; assay type: nucleic-acid assay
Nucleic Acid [27] = test: Binding affinity to Escherichia coli pUC19 DNA assessed as form 1 DNA level at 0.320 mM after 25.35 hrs by agarose gel electrophoresis; assay type: nucleic-acid assay
Nucleic Acid [28] = test: Binding affinity to Escherichia coli pUC19 DNA assessed as form 2 DNA level at 0.130 mM after 14 hrs by agarose gel electrophoresis; assay type: nucleic-acid assay
Nucleic Acid [29] = test: Binding affinity to Escherichia coli pUC19 DNA assessed as form 1 DNA level at 0.349 mM after 28.18 hrs by agarose gel electrophoresis; assay type: nucleic-acid assay
Nucleic Acid [30] = test: Binding affinity to Escherichia coli pUC19 DNA assessed as form 1 DNA level at 0.175 mM after 23.12 hrs by agarose gel electrophoresis; assay type: nucleic-acid assay
Nucleic Acid [31] = test: Binding affinity to Escherichia coli pUC19 DNA assessed as form 1 DNA level at 0.130 mM after 14 hrs by agarose gel electrophoresis; assay type: nucleic-acid assay
Nucleic Acid [32] = test: Binding affinity to Escherichia coli pUC19 DNA assessed as form 2 DNA level at 0.463 mM by agarose gel electrophoresis; assay type: nucleic-acid assay
Nucleic Acid [33] = test: Binding affinity to Escherichia coli pUC19 DNA assessed as form 2 DNA level at 0.463 mM after 13.07 hrs by agarose gel electrophoresis; assay type: nucleic-acid assay
Nucleic Acid [34] = test: Binding affinity to Escherichia coli pUC19 DNA assessed as form 1 DNA level at 0.262 mM after 25.02 hrs by agarose gel electrophoresis; assay type: nucleic-acid assay
Nucleic Acid [35] = test: Binding affinity to Escherichia coli pUC19 DNA assessed as form 2 DNA level at 0.175 mM after 27.33 hrs by agarose gel electrophoresis; assay type: nucleic-acid assay
Nucleic Acid [36] = test: Binding affinity to Escherichia coli pUC19 DNA assessed as form 2 DNA level at 0.320 mM after 29.33 hrs by agarose gel electrophoresis; assay type: nucleic-acid assay
Nucleic Acid [37] = test: Binding affinity to Escherichia coli pUC19 DNA assessed as form 2 DNA level at 0.320 mM after 13.07 hrs by agarose gel electrophoresis; assay type: nucleic-acid assay
Nucleic Acid [38] = test: Binding affinity to Escherichia coli pUC19 DNA assessed as form 2 DNA level at 0.262 mM after 25.02 hrs by agarose gel electrophoresis; assay type: nucleic-acid assay
Nucleic Acid [39] = test: Binding affinity to Escherichia coli pUC19 DNA assessed as form 1 DNA level at 0.463 mM after 27.33 hrs by agarose gel electrophoresis; assay type: nucleic-acid assay

- Activity (Nucleic Acid [1]): 9.19%
- Activity (Nucleic Acid [2]): 60.2%
- Activity (Nucleic Acid [3]): 34.4%
- Activity (Nucleic Acid [4]): 26%
- Activity (Nucleic Acid [5]): 16.2%
- Activity (Nucleic Acid [6]): inactive
- Activity (Nucleic Acid [7]): 28.4%
- Activity (Nucleic Acid [8]): 69.8%
- Activity (Nucleic Acid [9]): 10.5%
- Activity (Nucleic Acid [10]): 77.5%
- Activity (Nucleic Acid [11]): 15.9%
- Activity (Nucleic Acid [12]): 74%
- Activity (Nucleic Acid [13]): 2.93%
- Activity (Nucleic Acid [14]): 97.5%
- Activity (Nucleic Acid [15]): 14.9%
- Activity (Nucleic Acid [16]): 94%
- Activity (Nucleic Acid [17]): 3.73%
- Activity (Nucleic Acid [18]): 23%
- Activity (Nucleic Acid [19]): 28.1%
- Activity (Nucleic Acid [20]): 40.6%
- Activity (Nucleic Acid [21]): 55%
- Activity (Nucleic Acid [22]): 16.6%
- Activity (Nucleic Acid [23]): 27.7%
- Activity (Nucleic Acid [24]): 21.8%
- Activity (Nucleic Acid [25]): 88.6%
- Activity (Nucleic Acid [26]): 74%
- Activity (Nucleic Acid [27]): 64%
- Activity (Nucleic Acid [28]): 24.4%
- Activity (Nucleic Acid [29]): 65.6%
- Activity (Nucleic Acid [30]): 80.8%
- Activity (Nucleic Acid [31]): 75.5%
- Activity (Nucleic Acid [32]): 3.75%
- Activity (Nucleic Acid [33]): 22.5%
- Activity (Nucleic Acid [34]): 88.1%
- Activity (Nucleic Acid [35]): 24%
- Activity (Nucleic Acid [36]): 65.2%
- Activity (Nucleic Acid [37]): 87.8%
- Activity (Nucleic Acid [38]): 11.9%
- Activity (Nucleic Acid [39]): 59.4%
SMILES: Cl.Cl.NNC1=NCC(O)CN1 (stereo not given)
- Activity (HeLa): 0%
